Key:
p56Lck = p56Lck (Homo sapiens, UniProt P06239); settings: cited from earlier work
allograft = settings: in vivo; cited from earlier work
Jak3 [1] = biological target: T1, Jak3 (Homo sapiens, UniProt P52333); settings: cited from earlier work
T1 sequence (P52333 1-1124): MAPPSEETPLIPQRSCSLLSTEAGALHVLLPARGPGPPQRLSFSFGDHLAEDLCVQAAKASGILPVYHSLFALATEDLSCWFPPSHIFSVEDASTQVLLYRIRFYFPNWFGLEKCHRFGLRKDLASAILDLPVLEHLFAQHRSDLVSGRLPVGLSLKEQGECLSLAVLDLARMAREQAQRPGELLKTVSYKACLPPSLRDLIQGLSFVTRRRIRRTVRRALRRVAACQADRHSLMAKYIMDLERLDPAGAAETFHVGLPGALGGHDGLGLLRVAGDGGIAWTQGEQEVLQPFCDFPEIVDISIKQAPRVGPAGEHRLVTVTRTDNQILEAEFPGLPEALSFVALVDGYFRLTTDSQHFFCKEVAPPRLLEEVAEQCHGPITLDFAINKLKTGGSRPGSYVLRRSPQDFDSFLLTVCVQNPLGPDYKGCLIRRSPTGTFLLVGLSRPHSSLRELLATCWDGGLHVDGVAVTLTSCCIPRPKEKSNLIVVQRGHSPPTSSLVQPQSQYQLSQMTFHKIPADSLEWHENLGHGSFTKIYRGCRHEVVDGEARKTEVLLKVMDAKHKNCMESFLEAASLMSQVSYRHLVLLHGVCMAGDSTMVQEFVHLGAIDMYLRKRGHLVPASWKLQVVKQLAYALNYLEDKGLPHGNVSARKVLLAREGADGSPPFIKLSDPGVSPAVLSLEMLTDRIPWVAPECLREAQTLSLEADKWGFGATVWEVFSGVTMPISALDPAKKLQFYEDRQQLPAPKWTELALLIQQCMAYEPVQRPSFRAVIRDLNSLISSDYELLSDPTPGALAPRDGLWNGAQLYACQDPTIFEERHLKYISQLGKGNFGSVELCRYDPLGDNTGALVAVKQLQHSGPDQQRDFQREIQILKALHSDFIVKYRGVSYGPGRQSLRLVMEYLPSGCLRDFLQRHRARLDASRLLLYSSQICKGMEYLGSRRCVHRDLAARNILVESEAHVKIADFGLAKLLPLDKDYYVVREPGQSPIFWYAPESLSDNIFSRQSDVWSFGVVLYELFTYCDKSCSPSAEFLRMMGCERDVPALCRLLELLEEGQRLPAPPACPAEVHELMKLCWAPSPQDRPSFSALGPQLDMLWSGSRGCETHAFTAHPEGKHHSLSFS

[2] = system: T-cell proliferation mediated by TCGFs; settings: cited from earlier work
Zap70 = biological target: T2, Zap70 (Homo sapiens, UniProt P43403); settings: cited from earlier work
T2 sequence (P43403 1-619): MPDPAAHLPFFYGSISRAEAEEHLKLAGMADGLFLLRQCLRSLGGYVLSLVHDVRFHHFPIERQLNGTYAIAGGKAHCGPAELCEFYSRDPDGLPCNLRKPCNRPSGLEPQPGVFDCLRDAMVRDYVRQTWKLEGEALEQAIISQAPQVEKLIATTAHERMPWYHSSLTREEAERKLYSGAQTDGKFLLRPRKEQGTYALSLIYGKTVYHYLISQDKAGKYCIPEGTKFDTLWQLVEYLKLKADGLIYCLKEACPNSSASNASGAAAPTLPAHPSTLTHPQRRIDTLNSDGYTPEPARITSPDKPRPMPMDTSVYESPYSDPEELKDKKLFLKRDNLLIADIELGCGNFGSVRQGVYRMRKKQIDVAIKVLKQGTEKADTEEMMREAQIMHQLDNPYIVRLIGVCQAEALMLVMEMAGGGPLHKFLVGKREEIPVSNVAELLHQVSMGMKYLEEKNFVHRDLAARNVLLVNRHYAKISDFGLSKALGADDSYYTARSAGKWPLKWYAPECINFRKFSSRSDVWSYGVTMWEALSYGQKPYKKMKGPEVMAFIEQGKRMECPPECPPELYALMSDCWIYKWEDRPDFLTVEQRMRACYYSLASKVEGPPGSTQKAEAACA

Jak3 [3] = biological target: T1, Jak3; settings: cited from earlier work; remark: listed apart in the source
[4] = system: γc/Jak3-dependent PHA-activated human T cells; test: Proliferation of PHA-activated human T cells ([3H]-thymidine); type: cell-based; settings: for proliferation of PHA-activated human T cells following stimulation with IL-2 (FIG. 7A): IL-2 stimulated
Protocol: Cell culture and treatment. The rat T-cell line Nb2-11c, originally developed by Dr. Peter Gout (Vancouver, Canada), was grown in RPMI-1640 with 10% fetal calf serum (Intergen, cat. no. 1020-90), 2 mM L-glutamine, 5 mM HEPES, pH 7.3, and penicillin-streptomycin (50 IU/ml and 50 μg/ml, respectively), at 37° C./5% CO2. Freshly explanted normal human T lymphocytes purified by isocentrifugation (Ficoll®; EM Science, Gibbstown, N.J.) were phytohemagglutinin (PHA)-activated for 72 hours as previously described.^23 T lymphocytes were made quiescent by washing and incubating for 24 hours in RPMI-1640 medium containing 1% fetal calf serum before exposure to cytokines. […] The Mannich base 649641P (NC1153) was generously provided by Dr. Jonathan Dimmock College of Pharmacy, University of Saskatchewan, Saskatoon, Saskatchewan, Canada. All cells were then stimulated with 1 nM recombinant human IL-2 (Hoffman-LaRoche, Basel, Switzerland), IL4 or IL7 (PeproTech), or ovine prolactin (PRL) supplied by the National Hormone and Pituitary Program, National Institute of Diabetes, Digestive, and Kidney Disease (Bethesda, Md.), at 37° C. Cell pellets were frozen at −70° C.
Proliferation assays. Quiescent human primary T-cells, YT or rat Nb2-11c T-cells (5.0×10^4/well) were plated in flat-bottom, 96-well microtiter plates in 200 μl of quiescent media in the absence or presence of 1 nM IL-2, -4, -7 (PeproTech, Rock Hill, N.J.), or PRL. Next, cells were treated for 16 hours with the Mannich base drug and then pulsed for 4 hours with [^3H]-thymidine (0.5 μCi/200 μl) and harvested onto fiberglass filters. [^3H]-thymidine incorporation was analyzed by liquid scintillation counting as previously described,^23 or using standard techniques that are well known in the art.

[5] = system: Jak3 mediated T-cell growth; settings: cited from earlier work
[6] = rat, in vivo
[7] = system: graft infiltrating mononuclear cells (GICs); settings: rat, in vivo; cited from earlier work
Jak1 = Jak1 (Homo sapiens, UniProt P23458); settings: cited from earlier work
Chain of Jak1 (P23458 whole entry, species assumed): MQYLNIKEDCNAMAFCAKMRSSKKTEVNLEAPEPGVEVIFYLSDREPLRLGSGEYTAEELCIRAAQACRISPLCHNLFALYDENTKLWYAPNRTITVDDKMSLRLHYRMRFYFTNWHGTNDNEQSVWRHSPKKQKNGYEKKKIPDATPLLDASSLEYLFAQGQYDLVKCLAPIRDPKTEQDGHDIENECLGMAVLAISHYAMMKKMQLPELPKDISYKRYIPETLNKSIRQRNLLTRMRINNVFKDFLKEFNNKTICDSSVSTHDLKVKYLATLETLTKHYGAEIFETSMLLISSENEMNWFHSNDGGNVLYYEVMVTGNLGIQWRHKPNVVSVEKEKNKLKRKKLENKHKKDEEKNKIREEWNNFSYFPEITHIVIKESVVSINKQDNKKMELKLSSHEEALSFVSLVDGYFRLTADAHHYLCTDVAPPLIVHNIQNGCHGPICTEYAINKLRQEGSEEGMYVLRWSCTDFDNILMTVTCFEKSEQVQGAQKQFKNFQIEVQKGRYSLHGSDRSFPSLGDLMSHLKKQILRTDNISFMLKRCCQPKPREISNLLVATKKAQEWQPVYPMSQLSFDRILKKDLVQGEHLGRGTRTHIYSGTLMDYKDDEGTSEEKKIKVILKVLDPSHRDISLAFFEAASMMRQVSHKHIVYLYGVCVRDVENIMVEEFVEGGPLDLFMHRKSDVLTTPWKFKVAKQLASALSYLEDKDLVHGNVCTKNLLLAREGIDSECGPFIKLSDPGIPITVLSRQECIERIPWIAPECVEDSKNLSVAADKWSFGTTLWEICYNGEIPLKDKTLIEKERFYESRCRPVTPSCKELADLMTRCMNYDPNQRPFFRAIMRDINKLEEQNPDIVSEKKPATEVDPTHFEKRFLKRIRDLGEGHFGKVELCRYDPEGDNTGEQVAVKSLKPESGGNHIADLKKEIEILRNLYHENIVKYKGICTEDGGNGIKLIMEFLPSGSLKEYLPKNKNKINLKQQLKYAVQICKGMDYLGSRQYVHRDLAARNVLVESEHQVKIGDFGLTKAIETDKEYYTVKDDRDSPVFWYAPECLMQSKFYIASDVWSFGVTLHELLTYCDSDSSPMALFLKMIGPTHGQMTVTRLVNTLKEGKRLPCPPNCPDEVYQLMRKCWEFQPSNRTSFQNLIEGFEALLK

Syk = Syk (Homo sapiens, UniProt P43405); settings: cited from earlier work
Btk = Btk (Homo sapiens, UniProt Q06187); settings: cited from earlier work
Chain of Btk (Q06187 whole entry, species assumed): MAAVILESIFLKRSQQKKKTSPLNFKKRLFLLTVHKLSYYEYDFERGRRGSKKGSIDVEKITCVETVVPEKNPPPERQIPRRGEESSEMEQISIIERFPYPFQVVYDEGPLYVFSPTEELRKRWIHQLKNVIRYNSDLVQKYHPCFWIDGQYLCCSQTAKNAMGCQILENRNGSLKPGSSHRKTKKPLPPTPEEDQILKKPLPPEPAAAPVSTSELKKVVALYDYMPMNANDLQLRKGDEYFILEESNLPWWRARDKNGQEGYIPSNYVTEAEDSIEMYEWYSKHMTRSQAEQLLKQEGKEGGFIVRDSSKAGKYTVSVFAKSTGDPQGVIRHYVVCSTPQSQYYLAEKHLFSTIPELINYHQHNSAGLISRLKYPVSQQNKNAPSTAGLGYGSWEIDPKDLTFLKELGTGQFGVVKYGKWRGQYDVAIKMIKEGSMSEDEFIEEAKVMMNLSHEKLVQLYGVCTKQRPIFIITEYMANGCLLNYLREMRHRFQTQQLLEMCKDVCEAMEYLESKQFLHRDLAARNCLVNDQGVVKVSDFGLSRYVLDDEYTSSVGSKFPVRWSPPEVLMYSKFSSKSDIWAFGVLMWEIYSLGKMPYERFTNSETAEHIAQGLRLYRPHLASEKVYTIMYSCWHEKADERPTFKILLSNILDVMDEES

Src = Src (Homo sapiens, UniProt P12931); settings: cited from earlier work
Chain of Src (P12931 whole entry, species assumed): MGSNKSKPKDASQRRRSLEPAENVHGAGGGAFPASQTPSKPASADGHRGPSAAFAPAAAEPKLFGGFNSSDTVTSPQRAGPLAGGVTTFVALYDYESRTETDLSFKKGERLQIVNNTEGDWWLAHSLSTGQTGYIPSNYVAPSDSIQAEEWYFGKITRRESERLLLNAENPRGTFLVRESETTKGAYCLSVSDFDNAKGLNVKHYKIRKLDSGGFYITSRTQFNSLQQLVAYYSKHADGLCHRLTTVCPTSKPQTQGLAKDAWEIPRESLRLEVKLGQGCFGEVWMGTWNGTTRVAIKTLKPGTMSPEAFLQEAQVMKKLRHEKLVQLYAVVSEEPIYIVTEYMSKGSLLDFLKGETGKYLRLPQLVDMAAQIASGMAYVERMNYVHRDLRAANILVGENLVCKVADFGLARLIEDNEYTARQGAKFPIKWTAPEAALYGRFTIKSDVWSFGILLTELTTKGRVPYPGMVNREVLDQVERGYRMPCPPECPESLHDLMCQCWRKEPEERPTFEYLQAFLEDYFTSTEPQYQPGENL

Tyk2 = Tyk2 (Homo sapiens, UniProt P29597); settings: cited from earlier work
Chain of Tyk2 (P29597 whole entry, species assumed): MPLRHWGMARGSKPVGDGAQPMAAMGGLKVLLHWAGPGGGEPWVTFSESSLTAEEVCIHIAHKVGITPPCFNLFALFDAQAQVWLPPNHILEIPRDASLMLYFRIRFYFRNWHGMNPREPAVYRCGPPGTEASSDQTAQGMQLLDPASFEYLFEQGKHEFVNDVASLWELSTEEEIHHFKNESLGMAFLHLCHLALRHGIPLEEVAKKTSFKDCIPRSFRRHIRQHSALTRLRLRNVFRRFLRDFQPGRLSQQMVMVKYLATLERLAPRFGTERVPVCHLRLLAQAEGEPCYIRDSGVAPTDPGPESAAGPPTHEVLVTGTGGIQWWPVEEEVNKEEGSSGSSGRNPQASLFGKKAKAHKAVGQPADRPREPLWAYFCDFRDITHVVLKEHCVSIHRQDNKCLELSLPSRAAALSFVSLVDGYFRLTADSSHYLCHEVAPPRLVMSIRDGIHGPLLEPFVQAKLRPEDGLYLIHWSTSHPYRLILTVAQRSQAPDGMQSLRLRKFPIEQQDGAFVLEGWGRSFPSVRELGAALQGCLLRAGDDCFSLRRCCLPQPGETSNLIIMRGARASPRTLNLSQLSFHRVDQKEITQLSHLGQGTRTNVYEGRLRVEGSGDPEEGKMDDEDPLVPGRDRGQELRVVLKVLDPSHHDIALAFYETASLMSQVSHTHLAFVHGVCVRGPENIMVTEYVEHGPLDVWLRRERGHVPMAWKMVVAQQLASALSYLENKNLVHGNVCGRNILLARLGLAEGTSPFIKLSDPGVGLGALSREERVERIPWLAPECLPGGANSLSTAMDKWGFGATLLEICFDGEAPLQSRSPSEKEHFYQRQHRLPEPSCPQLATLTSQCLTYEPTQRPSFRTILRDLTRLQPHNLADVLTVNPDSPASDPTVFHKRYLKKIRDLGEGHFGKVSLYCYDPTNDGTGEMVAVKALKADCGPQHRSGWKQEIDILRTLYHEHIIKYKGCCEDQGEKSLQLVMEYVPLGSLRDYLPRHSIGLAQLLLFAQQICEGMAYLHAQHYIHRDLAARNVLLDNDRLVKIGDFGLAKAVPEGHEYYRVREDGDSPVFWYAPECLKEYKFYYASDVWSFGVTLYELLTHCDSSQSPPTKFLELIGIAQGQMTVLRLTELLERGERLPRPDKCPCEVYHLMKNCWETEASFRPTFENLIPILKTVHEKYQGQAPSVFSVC

Jak = settings: cited from earlier work
Lck = Lck (Homo sapiens, UniProt P06239); settings: cited from earlier work
Chain of Lck (P06239 whole entry, species assumed): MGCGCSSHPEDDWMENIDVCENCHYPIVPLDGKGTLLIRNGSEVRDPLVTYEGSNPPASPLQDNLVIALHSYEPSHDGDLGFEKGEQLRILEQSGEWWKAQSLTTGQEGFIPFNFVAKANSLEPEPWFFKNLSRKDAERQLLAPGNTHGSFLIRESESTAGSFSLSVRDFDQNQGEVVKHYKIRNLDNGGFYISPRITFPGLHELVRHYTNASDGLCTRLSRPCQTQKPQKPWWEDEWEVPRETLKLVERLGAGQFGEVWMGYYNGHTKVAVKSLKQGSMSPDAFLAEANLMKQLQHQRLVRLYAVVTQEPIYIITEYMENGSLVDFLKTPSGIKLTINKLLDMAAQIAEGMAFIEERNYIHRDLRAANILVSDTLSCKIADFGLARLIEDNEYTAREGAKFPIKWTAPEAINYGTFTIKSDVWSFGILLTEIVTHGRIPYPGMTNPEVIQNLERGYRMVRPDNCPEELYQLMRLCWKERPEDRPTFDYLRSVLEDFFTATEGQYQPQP

Lyn = Lyn (Homo sapiens, UniProt P07948); settings: cited from earlier work
Chain of Lyn (P07948 whole entry, species assumed): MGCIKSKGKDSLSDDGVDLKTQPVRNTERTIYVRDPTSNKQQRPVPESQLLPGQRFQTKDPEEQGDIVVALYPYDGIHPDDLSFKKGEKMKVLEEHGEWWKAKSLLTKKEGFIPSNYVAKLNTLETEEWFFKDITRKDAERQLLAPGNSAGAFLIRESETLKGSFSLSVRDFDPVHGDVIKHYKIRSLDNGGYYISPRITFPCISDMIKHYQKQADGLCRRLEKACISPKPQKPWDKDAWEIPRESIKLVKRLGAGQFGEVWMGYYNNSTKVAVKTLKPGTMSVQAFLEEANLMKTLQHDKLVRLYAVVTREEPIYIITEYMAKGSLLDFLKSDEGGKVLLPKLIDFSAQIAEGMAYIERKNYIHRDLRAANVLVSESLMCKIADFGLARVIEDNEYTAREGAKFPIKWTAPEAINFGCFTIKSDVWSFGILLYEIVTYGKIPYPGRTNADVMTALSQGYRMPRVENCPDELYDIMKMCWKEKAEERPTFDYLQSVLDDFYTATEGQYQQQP

Chain of p56Lck (P06239 whole entry, species assumed): as the sequence (P06239 whole entry, species assumed) above

## CCCCCCCCCCCC1C=C/C(=C/c2[nH]c(-c3ccc[nH]3)cc2OCc2ccccc2)N1.Cl (stereo not drawn) [PNU156804]
p56Lck
  effect on p56Lck: neither of those two agents affects
allograft
  allograft survival: prolongs allograft survival
  interaction with CsA: synergistically
  interaction with RAPA: additively
Jak3 [1]
  Jak3 autokinase activity: competent to inhibit
[2]
  T-cell proliferation mediated by TCGFs: competent to inhibit
Zap70
  effect on Zap70: neither of those two agents affects
Jak3 [3]
  Jak3 autophosphorylation as compared with Jak2: preferentially inhibited
[4]; Homo sapiens, IL-2 driven T-cell growth, 16 hours drug, [3H]-thymidine, read-out: IC50, disrupting cell growth
  IC50: ~10 µM
[5]
  inhibition of Jak3 mediated T-cell growth by IL-2 compared to prolactin (Jak2): greater specificity

## CO[C@H]1C[C@@H]2CC[C@@H](C)[C@@](O)(O2)C(=O)C(=O)N2CCCC[C@H]2C(=O)O[C@H]([C@H](C)C[C@@H]2CC[C@@H](O)[C@H](OC)C2)CC(=O)[C@H](C)/C=C(\C)[C@@H](O)[C@@H](OC)C(=O)[C@H](C)C[C@H](C)/C=C/C=C/C=C/1C [RAPA, rapamycin, reference compound]
[6]
  peripheral blood counts (PBC): reduced PBC compared to untreated rats, in contrast to SRL

## N#CCCN(CCC#N)c1ccc(C(Sc2ccccc2)C(NC(=O)c2cc([N+](=O)[O-])ccc2Cl)C(=O)Sc2ccccc2)cc1 (stereo not drawn) [compound 640674]
[4]
  proliferation of PHA-activated human T cells following stimulation with IL-2 (FIG. 7A): blocked

## O=C1c2ccccc2C(=O)[C@@]23O[C@@]12C1(Oc2cccc4cccc(c24)O1)[C@@H]1O[C@@H]1[C@@H]3O [compound 683332]
[4]
  proliferation of PHA-activated human T cells following stimulation with IL-2 (FIG. 7A): blocked

## CC1(C)c2ccccc2N2O[C@@H]3C(=O)N(c4ccccc4)C(=O)[C@@H]3C21c1ccccc1 (stereo partly drawn) [compound 643423]
[4]
  proliferation of PHA-activated human T cells following stimulation with IL-2 (FIG. 7A): blocked

## CCCCCCCC(=O)OCC(C[As](=O)(O)O)OC(=O)CCCCCCC (stereo not drawn) [compound 655906]
[4]
  proliferation of PHA-activated human T cells following stimulation with IL-2 (FIG. 7A): blocked

## Cc1oc2c(c1C)S(=O)(=O)C(C#N)C(c1ccccc1)N2 (stereo not drawn) [compound 693812]
[4]
  proliferation of PHA-activated human T cells following stimulation with IL-2 (FIG. 7A): blocked

## N#C/C(=C\c1ccc(O)c(O)c1)C(=O)NCc1ccccc1 [AG-490]
p56Lck
  effect on p56Lck: neither of those two agents affects
[7]
  IL2Rα expression (ribonuclease protection assays): failed to affect
  Stat5a/b DNA binding of ex vivo IL-2 stimulated GICs: reduced
  graft infiltration of mononuclear cells (GICs): reduced
Jak3 [1]
  Jak3 autokinase activity: competent to inhibit
Jak1
  inhibition of Jak1: does not inhibit
[2]
  T-cell proliferation mediated by TCGFs: competent to inhibit
Zap70
  effect on Zap70: neither of those two agents affects
Syk
  inhibition of Syk: does not inhibit
Btk
  inhibition of Btk: does not inhibit
Src
  inhibition of Src: does not inhibit
Tyk2
  inhibition of Tyk2: does not inhibit
Jak
  effects on closest related family member Jak: exert similar effects
Lck
  inhibition of Lck: does not inhibit
Lyn
  inhibition of Lyn: does not inhibit

## CC(=O)Oc1ccc2cc(-c3ccccc3OC(C)=O)c(=O)oc2c1 [compound 673137]
[4]
  proliferation of PHA-activated human T cells following stimulation with IL-2 (FIG. 7A): blocked

## COc1cc(C2C(C(=O)Nc3ccc(Cl)c(Cl)c3)=C(C)NC(C)=C2C(=O)Nc2ccc(Cl)c(Cl)c2)ccc1O [compound 637712]
[4]
  proliferation of PHA-activated human T cells following stimulation with IL-2 (FIG. 7A): blocked
